Test results reported in patent US6335451B1, “Five-membered heterocycles having biphenylsulfonyl substitution, with sulfonylcyanamide side chain, compositions containing them, and methods of using them” (Hoechst Aktiengesellschaft, priority 1997, dated 2002).

Key:
[1] = test system: Na+-dependent Cl−/HCO3− exchanger (NCBE); experiment: Inhibition of the Na+-dependent Cl−/HCO3− exchanger (NCBE) in human endothelial cells (pHi recovery, BCECF fluorescence, FLIPR); type: cell-based; settings: inhibitor concentration of 10 μM; human endothelial cells (ECV-304); relative to 100% and 0% pHi recovery controls, 50 μM HOE 642 present
Procedure: Inhibition of the Na^+-dependent Cl^−/HCO3^− exchanger (NCBE) in human endothelial cells
Human endothelial cells (ECV-304) were detached from culture bottles with the aid of trypsin/EDTA buffer (0.05/0.02% in phosphate buffer) and, after centrifugation (100 g, 5 min), taken up in a buffered salt solution (mmol/l: 115 NaCl, 20 NH4Cl, 5 KCl, 1 CaCl2, 1 MgSO4, 20 N-(2-hydroxyethyl)piperazine-N′-2-ethanesulfonic acid (HEPES), 5 glucose and 1 g/l of bovine serum albumin; pH 7.4). This cell suspension was incubated at 37° C. for 20 min with 5 μM BCECF-acetoxymethyl ester. The cells were then washed and resuspended in a sodium- and bicarbonate-free buffer solution (mmol/l: 5 HEPES, 133.8 choline chloride, 4.7 KCl, 1.25 MgCl2, 0.97 K2HPO4, 0.23 KH2PO4, 5 glucose; pH 7.4).
For subsequent fluorescence measurement in an FLIPR (Fluorescent Imaging Plate Reader) 100 μl of this cell suspension having 20,000 cells in each case were pipetted per well into a 96-well microtiter plate and this microtiter plate was centrifuged (100 g, 5 min).
In the FLIPR, 100 μl of buffer solution in each case were then removed from a further pretreated microtiter plate and pipetted into each of the 96 wells of the measurement plate. A bicarbonate- and sodium-containing buffer solution (mmol/l: 5 HEPES, 93.8 NaCl, 40 NaHCO3, 4.7 KCl, 1.25 CaCl2, 1.25 MgCl2, 0.97 Na2HPO4, 0.23 NaH2PO4, 5 glucose; pH 7.4) which contained 50 μM HOE 642 was used for a 100% control, i.e. a recovery of the intracellular pH (pHi) via the NCBE. For a 0% control, i.e. no pHi recovery at all, the bicarbonate-free, sodium-containing buffer solution (mmol/l: 5 HEPES, 133.8 NaCl, 4.7 KCl, 1.25 CaCl2, 1.25 MgCl2, 0.97 Na2HPO4, 0.23 NaH2PO4, 5 glucose; pH 7.4) was employed, to which 50 μM HOE 642 were likewise added. The compounds according to the invention were added to the sodium- and bicarbonate-containing solution in various concentrations.
After addition of the buffer solutions to the dye-loaded, acidified cells in the measurement plate, the rise in the fluorescence intensity which corresponded to a rise in the pHi in each well of the microtiter plate was determined. The kinetics were in this case recorded at 35° C. for a period of 2 minutes.
The increase in the fluorescence intensities for different concentrations of the compounds according to the invention was related to the two controls and from this inhibitory action of the substances was determined.
Residual Activity of the NCBE at an Inhibitor Concentration of 10 μM

Structure (SMILES)	Residual activity in % (residual activity of the NCBE) [1] [%]	melting point
COc1ccc(-c2nc(Cl)c(C=O)n2Cc2ccc(-c3ccccc3S(=O)(=O)NC#N)cc2)cc1 [Example 37, 4′-[4-Chloro-5-formyl-2-(4-methoxyphenyl)-imidazole-1-ylmethyl]-biphenyl-2-sulfonylcyanamide]	16.8	110 to 126 °C
CCOC(=O)c1c(SC)nc(CC)n1Cc1ccc(-c2ccccc2S(=O)(=O)NC#N)cc1 [Example 17, Ethyl 2-ethyl-5-methylsulfanyl-3-(2′-cyanoaminosulfonylbiphenyl-4-ylmethyl)-3H-imidazole-4-carboxylate]	39.1	94 °C (dec.)
CCCc1nc(SC)c(C(=O)OCC)n1Cc1ccc(-c2ccccc2S(=O)(=O)NC#N)cc1 [Example 16]	11.5	165 °C (dec.)
CCCCc1nc(SC)c(C(=O)OCC)n1Cc1ccc(-c2ccccc2S(=O)(=O)NC#N)cc1 [Example 1, Ethyl 2-butyl-5-methylsulfanyl-3-(2′-cyanoaminosulfonyl-biphenyl-4-ylmethyl)-3H-imidazole-4-carboxylate]	17.7	111 °C (dec.)
N#CNS(=O)(=O)c1ccccc1-c1ccc(Cn2c(-c3ccc(Cl)cc3)nc(Cl)c2C=O)cc1 [Example 36, 4′-[4-Chloro-5-formyl-2-(4-chlorphenyl)-imidazole-1-ylmethyl]-biphenyl-2-sulfonylcyanamide]	7.8	160 to 187 °C
CCCCc1ncc(C(=O)OCC)n1Cc1ccc(-c2ccccc2S(=O)(=O)NC#N)cc1 [Example 13, Ethyl 2-butyl-3-(2′-cyanoaminosulfonylbiphenyl-4-ylmethyl)-3H-imidazole-4-carboxylate]	89.5	121 °C (dec.)
CCCCc1nc(SC)c(C(=O)OCC)n1Cc1ccc(-c2cc(S(=O)(=O)NC#N)ccc2C)cc1 [Example 21, Ethyl 2-butyl-3-(2′-methyl-5′-cyanoaminosulfonylbiphenyl-4-yl-methyl)-5-methylsulfanyl-3H-imidazole-4-carboxylate]	42.6	127 °C (dec.)
CCCCc1nc(SC)c(C(=O)OCC)n1Cc1ccccc1-c1ccccc1S(=O)(=O)NC#N [Example 7, Ethyl 2-butyl-5-methylsulfanyl-3-(2′-cyanoaminosulfonyl-biphenyl-2-ylmethyl)-3H-imidazole-4-carboxylate]	72.1	105 °C (dec.)
CCCCc1nc(Cl)c(C=O)n1Cc1ccc(-c2ccccc2S(=O)(=O)NC#N)cc1 [Example 15, 4′-(2-Butyl-4-chloro-5-formylimidazol-1-ylmethyl)biphenyl-2-sulfonylcyanamide]	55.7	135 °C (dec.)
CCCCc1nc(SC)c(C(=O)OCC)n1Cc1cccc(-c2ccccc2S(=O)(=O)NC#N)c1 [Example 4, Ethyl 2-butyl-5-methylsulfanyl-3-(2′-cyanoaminosulfonyl-biphenyl-3-ylmethyl)-3H-imidazole-4-carboxylate]	39.7	118 °C (dec.)
CCCCc1nc(SC)c(C(=O)OCC)n1Cc1ccccc1-c1cccc(S(=O)(=O)NC#N)c1 [Example 8, Ethyl 2-butyl-5-methylsulfanyl-3-(3′-cyanoaminosulfonyl-biphenyl-2-ylmethyl)-3H-imidazole-4-carboxylate]	60.8	108 °C (dec.)
CCCCc1nc(SC)c(C(=O)OCC)n1Cc1cccc(-c2cccc(S(=O)(=O)NC#N)c2)c1 [Example 5, Ethyl 2-butyl-5-methylsulfanyl-3-(3′-cyanoaminosulfonyl-biphenyl-3-ylmethyl)-3H-imidazole-4-carboxylate]	43.2	112 °C (dec.)
CCCCc1nc(SC)c(C(=O)OCC)n1Cc1cccc(-c2ccc(S(=O)(=O)NC#N)cc2C)c1 [Example 25, Ethyl 2-butyl-3-(2′-methyl-4′-cyanoaminosulfonylbiphenyl-3-yl-methyl)-5-methylsulfanyl-3H-imidazole-4-carboxylate]	70.8	115 °C (dec.)
